The text below walks through data of ChEMBL document CHEMBL1149210, “A novel series of potent and selective small molecule inhibitors of the complement component C1s” (Bioorg Med Chem Lett, 2004).

Each structure is given as a SMILES string. A value given as a limit tells only on which side of the number the result lay.

In assay [1] the target is T1, Complement C1s subcomponent (Homo sapiens, UniProt P09871).
T1 sequence (P09871 whole entry): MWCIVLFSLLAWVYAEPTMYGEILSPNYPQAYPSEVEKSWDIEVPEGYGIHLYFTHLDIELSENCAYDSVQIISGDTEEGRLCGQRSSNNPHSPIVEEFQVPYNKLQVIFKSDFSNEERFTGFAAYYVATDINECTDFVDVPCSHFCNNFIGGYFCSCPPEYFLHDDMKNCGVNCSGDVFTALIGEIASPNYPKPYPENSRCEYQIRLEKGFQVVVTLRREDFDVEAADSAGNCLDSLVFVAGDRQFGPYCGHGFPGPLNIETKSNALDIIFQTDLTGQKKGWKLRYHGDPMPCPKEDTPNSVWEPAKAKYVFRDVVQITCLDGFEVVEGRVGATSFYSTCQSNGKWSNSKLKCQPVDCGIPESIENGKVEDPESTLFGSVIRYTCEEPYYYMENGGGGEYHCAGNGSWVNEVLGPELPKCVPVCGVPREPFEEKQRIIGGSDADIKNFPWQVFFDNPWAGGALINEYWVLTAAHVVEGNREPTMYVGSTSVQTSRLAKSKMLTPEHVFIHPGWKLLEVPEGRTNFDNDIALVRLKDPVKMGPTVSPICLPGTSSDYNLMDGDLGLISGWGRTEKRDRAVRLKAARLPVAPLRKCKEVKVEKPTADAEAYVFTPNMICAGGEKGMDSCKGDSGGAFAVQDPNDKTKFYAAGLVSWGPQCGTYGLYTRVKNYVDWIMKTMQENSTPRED
Nature of the assay: In vitro binding affinity towards human Complement C1s subcomponent.

The next assay concerns the target Prothrombin (Homo sapiens, UniProt P00734). Nature of the assay: In vitro binding affinity towards thrombin was determined.
Assay [2] can be described thus: In vitro binding affinity towards human Complement C1r subcomponent.
The target of the next assay is Plasminogen (Rattus norvegicus, UniProt Q01177). Nature of the assay: In vitro binding affinity towards plasmin was determined.
Plasminogen, sequence (Q01177 97-581 limits assumed): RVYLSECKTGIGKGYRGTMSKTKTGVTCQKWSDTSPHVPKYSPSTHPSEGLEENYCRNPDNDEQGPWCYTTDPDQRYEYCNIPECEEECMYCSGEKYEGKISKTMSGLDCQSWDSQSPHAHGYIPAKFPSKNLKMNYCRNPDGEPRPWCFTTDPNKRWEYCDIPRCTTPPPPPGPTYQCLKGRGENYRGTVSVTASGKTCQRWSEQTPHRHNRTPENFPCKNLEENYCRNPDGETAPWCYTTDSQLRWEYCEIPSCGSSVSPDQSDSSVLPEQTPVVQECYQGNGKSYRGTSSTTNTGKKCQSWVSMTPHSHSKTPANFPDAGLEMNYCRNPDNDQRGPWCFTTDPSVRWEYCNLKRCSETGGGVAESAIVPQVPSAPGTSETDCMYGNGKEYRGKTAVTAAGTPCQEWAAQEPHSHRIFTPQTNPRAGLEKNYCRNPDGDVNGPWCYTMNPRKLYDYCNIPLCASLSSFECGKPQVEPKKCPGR
Plasminogen, sequence (Q01177 582-812 limits assumed): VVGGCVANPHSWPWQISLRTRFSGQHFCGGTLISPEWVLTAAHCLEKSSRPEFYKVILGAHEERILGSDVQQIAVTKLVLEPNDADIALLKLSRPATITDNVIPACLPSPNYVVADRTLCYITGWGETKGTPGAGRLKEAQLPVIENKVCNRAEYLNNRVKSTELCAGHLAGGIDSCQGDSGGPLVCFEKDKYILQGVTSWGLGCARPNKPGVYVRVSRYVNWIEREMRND
For the next assay, the target named is Coagulation factor X (Homo sapiens, UniProt P00742). Nature of the assay: In vitro binding affinity towards Coagulation factor X was determined.
Coagulation factor X, sequence (P00742 41-179 limits assumed): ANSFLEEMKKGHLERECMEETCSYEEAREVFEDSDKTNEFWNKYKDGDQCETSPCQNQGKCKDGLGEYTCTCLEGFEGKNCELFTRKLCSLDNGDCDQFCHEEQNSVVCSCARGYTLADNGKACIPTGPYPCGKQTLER
Coagulation factor X, sequence (P00742 235-488 limits assumed): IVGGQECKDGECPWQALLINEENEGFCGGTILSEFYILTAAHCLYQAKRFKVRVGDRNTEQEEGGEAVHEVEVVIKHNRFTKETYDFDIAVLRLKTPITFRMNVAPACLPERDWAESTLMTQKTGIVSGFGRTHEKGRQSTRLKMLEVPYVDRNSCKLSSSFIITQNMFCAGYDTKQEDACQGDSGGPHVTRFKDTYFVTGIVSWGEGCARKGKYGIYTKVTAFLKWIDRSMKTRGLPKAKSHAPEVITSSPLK
A further assay addresses Serine protease 1 (Homo sapiens, UniProt P07477). The assay can be described thus: In vitro binding affinity towards trypsin was determined.

Serine protease 1, sequence (P07477 whole entry): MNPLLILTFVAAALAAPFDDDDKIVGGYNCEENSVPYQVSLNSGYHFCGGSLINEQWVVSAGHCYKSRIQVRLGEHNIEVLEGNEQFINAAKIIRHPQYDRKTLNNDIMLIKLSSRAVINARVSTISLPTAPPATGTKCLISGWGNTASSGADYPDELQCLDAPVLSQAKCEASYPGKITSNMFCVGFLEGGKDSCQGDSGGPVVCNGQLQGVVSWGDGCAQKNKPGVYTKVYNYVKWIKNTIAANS

For the compound `CSc1sc(C(=N)N)cc1-c1nc(-c2ccc(-c3ccccc3)cc2)cs1`, the affinity in assay [1], expressed as Ki, was 15400 nM.
On the same count and under the same terms, in the case of `CSc1sc(C(=N)N)cc1-c1nc(C2CCCCC2)cs1` it was 4700 nM.
The same measure, in the same setting: in the case of `CCc1sc(C(=N)N)cc1-c1nc(-c2ccccc2)cs1` it was 3000 nM.
On the same count and under the same terms, in the case of `CSc1sc(C(=N)N)cc1-c1nc(COc2ccccc2)cs1` it was 520 nM.
Take `COc1ccccc1-c1csc(-c2cc(C(=N)N)sc2SC)n1`: the affinity in assay [1] corresponds to a Ki of 850 nM.
For the compound `CSc1sc(C(=N)N)cc1-c1nc(-c2ccc([N+](=O)[O-])cc2)cs1`, the Ki (as a rule, the equilibrium dissociation constant of an inhibitor or competing ligand from its target) in assay [1] stood at 1000 nM. The Ki values of the last two compounds are within 1.5-fold of each other.
The compound `N=C(N)c1cc(-c2nc(-c3ccccc3)cs2)c(C(F)(F)F)s1` displayed a Ki in assay [1] of 12500 nM.
On the same count and under the same terms, in the case of `CCCc1c(-c2csc(-c3cc(C(=N)N)sc3SC)n2)cnn1C` it was 330 nM; in that of `CSc1sc(C(=N)N)cc1-c1nc(-c2ccc(Cl)cc2Cl)cs1`, 3000 nM.
On the same count and under the same terms, next, `CSc1sc(C(=N)N)cc1-c1nc(Cc2ccccc2)cs1`: 1060 nM; `CSc1sc(C(=N)N)cc1-c1nc(-c2cnccc2Cl)cs1`: 870 nM; `N=C(N)c1cc(-c2nc(-c3ccccc3)cs2)c(SCc2ccccc2)s1`: over 20000 nM.
Same read-out and setting: next, `COc1ccc(-c2csc(-c3cc(C(=N)N)sc3SC)n2)cc1`: 900 nM; `COc1ccc(-c2csc(-c3cc(C(=N)N)sc3SC)n2)c(OC)c1`: 640 nM.
On to `CCCc1c(-c2csc(-c3cc(C(=N)N)sc3SC)n2)cnn1-c1ccccn1`, for which the Ki was over 50000 nM on Prothrombin; over 50000 nM in assay [2]; 70 nM in assay [1]; 5000 nM at Plasminogen; 5000 nM at Coagulation factor X; 180 nM on Serine protease 1.
Regarding `COc1sc(C(=N)N)cc1-c1nc(-c2ccccc2)cs1`, in assay [1], the Ki was found to be 14400 nM. That is a double-digit micromolar value.
Still for that read-out and setting: in the case of `CSc1sc(C(=N)N)cc1-c1nc(-c2cccc(C)c2)cs1` it was 960 nM.
On the same count and under the same terms, next, `CCSc1sc(C(=N)N)cc1-c1nc(-c2ccccc2)cs1`: over 20000 nM.
Same read-out and setting: next, `CSc1sc(C(=N)N)cc1-c1nc(-c2cccnc2Cl)cs1`: 1020 nM; `CSc1sc(C(=N)N)cc1-c1nc(-c2csc3ccccc23)cs1`: 450 nM; `CSc1sc(C(=N)N)cc1-c1nc(-c2cnn(C)c2)cs1`: 460 nM.
`CCCc1c(-c2csc(-c3cc(C(=N)N)sc3SC)n2)cnn1-c1ccccc1` displayed a Ki in assay [1] of 60 nM.
On the same count and under the same terms, in the case of `CSc1sc(C(=N)N)cc1-c1nc(-c2cnn(-c3ccccc3)c2OCC2CCC2)cs1` it was 530 nM.
The same measure, in the same setting: in the case of `CSc1sc(C(=N)N)cc1-c1nc(-c2cnn(-c3ccccc3)c2)cs1` it was 150 nM; in that of `CSc1sc(C(=N)N)cc1-c1nc(-c2ccccc2)cs1`, 560 nM.
Same read-out and setting: next, `CSc1sc(C(=N)N)cc1-c1nc(-c2ccc(Cl)c([N+](=O)[O-])c2)cs1`: 860 nM.
Turning to `CSc1sc(C(=N)N)cc1-c1nc(-c2cccs2)cs1`, the Ki in assay [1] was determined as 700 nM.
Still for that read-out and setting: in the case of `CCOc1c(-c2csc(-c3cc(C(=N)N)sc3SC)n2)cnn1-c1ccccc1` it was 90 nM; in that of `Cc1sc(C(=N)N)cc1-c1nc(-c2ccccc2)cs1`, 6000 nM; in that of `CSc1sc(C(=N)N)cc1-c1ncc(-c2ccccc2)s1`, 3250 nM.
On the same count and under the same terms, next, `CSc1sc(C(=N)N)cc1-c1nc(-c2ccccc2C)cs1`: 850 nM; `CSc1sc(C(=N)N)cc1-c1nc(-c2ccc3ccccc3c2)cs1`: 490 nM.
In the case of `CS(=O)(=O)c1sc(C(=N)N)cc1-c1nc(-c2ccccc2)cs1`, the Ki in assay [1] was over 28000 nM.
On the same count and under the same terms, in the case of `CSc1sc(C(=N)N)cc1-c1nc(-c2ccc(Cl)cc2)cs1` it was 436 nM.
On to `N=C(N)c1cc(-c2nc(-c3ccccc3)cs2)cs1`, for which the Ki in assay [1] was over 20000 nM.
On the same count and under the same terms, in the case of `CCCc1nn(C)cc1-c1csc(-c2cc(C(=N)N)sc2SC)n1` it was 190 nM.
On the same count and under the same terms, next, `COc1cccc(-c2csc(-c3cc(C(=N)N)sc3SC)n2)c1`: 470 nM; `CSc1sc(C(=N)N)cc1-c1nc(-c2ccc(C)cc2)cs1`: 420 nM; `CSc1sc(C(=N)N)cc1-c1nc(-c2cnn(-c3ccccc3)c2OCCC(C)C)cs1`: 1500 nM.
